Data as given in publication PMC10388363, “Novel 1,4-Dihydropyridines as Specific Binders and Activators of SIRT3 Impair Cell Viability and Clonogenicity and Downregulate Hypoxia-Induced Targets in Cancer Cells” (Journal of Medicinal Chemistry, 2023).
pKd: −log10 of the molar value.

Tests used:
human SIRT3 [1] = target: T1, human SIRT3 (Homo sapiens, UniProt Q9NTG7); design: method as in PMID 36228194; settings: 100 μM; cited from earlier work
T1 construct: pET151D/Topo (Sirt3-114-380 and Sirt5-34-302); His tag (N, cleaved yes); made in house; host or cells: Escherichia coli
T1 sequence (Q9NTG7 114-380): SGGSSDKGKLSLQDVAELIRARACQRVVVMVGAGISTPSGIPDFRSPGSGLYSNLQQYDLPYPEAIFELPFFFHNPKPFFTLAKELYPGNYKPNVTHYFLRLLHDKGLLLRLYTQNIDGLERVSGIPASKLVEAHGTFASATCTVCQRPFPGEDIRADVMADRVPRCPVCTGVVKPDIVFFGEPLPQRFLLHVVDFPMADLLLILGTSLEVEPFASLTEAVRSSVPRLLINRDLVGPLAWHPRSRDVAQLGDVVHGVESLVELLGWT

human SIRT1 = target: T2, human SIRT1 (Homo sapiens, UniProt Q96EB6); design: method as in PMID 36228194; settings: 100 μM; cited from earlier work
T2 construct: using constructs in pET15b (Sirt1); His tag (N, cleaved yes); made in house; host or cells: Escherichia coli
T2 sequence (Q96EB6 1-747): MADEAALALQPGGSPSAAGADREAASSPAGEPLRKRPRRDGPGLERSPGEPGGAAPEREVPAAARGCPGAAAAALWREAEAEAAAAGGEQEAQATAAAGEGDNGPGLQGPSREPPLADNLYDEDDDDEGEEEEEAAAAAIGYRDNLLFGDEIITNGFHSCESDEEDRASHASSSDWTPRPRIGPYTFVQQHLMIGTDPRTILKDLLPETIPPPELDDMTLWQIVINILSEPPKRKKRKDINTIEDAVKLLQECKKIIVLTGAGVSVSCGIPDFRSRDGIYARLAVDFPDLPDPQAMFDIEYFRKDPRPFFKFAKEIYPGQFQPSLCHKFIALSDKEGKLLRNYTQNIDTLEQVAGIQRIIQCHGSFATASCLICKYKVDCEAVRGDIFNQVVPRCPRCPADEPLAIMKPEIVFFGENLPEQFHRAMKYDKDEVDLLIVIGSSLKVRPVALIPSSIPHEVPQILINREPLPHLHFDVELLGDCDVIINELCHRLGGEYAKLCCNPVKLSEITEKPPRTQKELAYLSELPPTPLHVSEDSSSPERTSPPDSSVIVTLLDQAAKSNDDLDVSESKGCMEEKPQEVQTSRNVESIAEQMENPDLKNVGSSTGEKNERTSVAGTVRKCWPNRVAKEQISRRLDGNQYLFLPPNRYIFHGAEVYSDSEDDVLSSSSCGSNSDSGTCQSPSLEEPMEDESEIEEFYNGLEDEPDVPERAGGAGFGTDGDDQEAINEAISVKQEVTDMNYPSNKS

human SIRT3 [2] = target: T1, human SIRT3; experiment: Surface plasmon resonance binding assay, immobilized SIRT3; settings: SPR, Scatchard analysis, analytes 5-80 μM
Procedure: Next, surface plasmon resonance (SPR) experiments were conducted with selected SIRT3 activators 2e and 3a–d to ascertain their biophysical interaction with the human SIRT3 protein. Their parental compounds 2 and 3, together with honokiol, were used as positive controls. The experiments were carried out twice at different concentrations (5, 10, 20, 40, and 80 μM), by injecting the compounds at increasing doses (Figure 5). The resonance units (RU) increase with respect to baseline indicates the formation of the SIRT3/ligand complex, the plateau region represents the steady-state phase of the interaction (RUeq, RU at equilibrium) and the decrease in RU after 180 s represents dissociation of analytes from the immobilized SIRT3 protein after injection of the buffer.
SPR experiments were carried out using a SensiQ Pioneer system (SensiQ, Oklahoma City, OK, USA), essentially as in Genovese et al. 2020[84] and in Battista et al. 2021,[85] with some modifications, as follows.
The sensor chip (COOH5) was chemically activated by a 35 μL injection of a 1:1 mixture of […] (200 mM) and N-hydroxysuccinimide (50 mM) at a flow rate of 5 μL/min. Sirtuin3 (ligand) was immobilized on activated sensor chips via amine coupling. Immobilization was carried out in 20 mM sodium acetate at pH 4.0; unreacted groups were blocked by injecting 1 M ethanolamine hydrochloride (35 μL). Sirtuin3 immobilization level obtained was 1500–4000 RU.
The analytes, dissolved in 100% DMSO at 10 mM concentration, were diluted in buffer 20 mM Hepes, 150 mM NaCl, 0.005% surfactant P20 buffer (HBSP) to a concentration of 200 μM (2% final DMSO concentration), further diluted in HBSP + 2% DMSO (HBSP2%D) and injected on the sensor chip at a constant flow rate (nominal flow rate = 30 μL/min) at the following concentrations: 5, 10, 20, 40, and 80 μM.
The RU increase relative to baseline indicates complex formation (taking place at known analytes concentrations at each moment in the gradient); the plateau region represents the steady-state phase of the interaction (RUeq); and the decrease in RU after 180 s represents dissociation of analytes from the immobilized Sirtiun3 after injection of HBSP2%D. Regeneration procedures are based on two long (2000 and 500 s) injections of buffer, separated by a brief (5 s) injection of 10 mM NaOH.
Control experiments were performed in sensor chips treated as described above in the absence of an immobilized ligand. Kinetic evaluation of the sensorgrams was obtained using the SensiQ Qdat program and full fitting with 1, 2, and 3 sites; Scatchard analysis was used to determine apparent KD values.

For `CCOC(=O)C1=CN(C(=O)c2ccccc2)C=C(C(=O)OCC)C1c1ccccc1` [Compound 2], the SIRT3 activation (human SIRT3 [1]) is given as “over 300%”, the SIRT1 activation (human SIRT1) is given as “below 200%” and the pKd (human SIRT3 [2]) is given as 4.33 to 4.40.
